Data as given in PMC11227536, “Modulation of the Meisenheimer complex metabolism of nitro-benzothiazinones by targeted C-6 substitution” (Communications Chemistry, 2024).
Converted amounts (≈) assume the structure as drawn.

Key:
[1] = system: Mycobacterium smegmatis (JMRC:STH:00056); assay: MIC determination; assay type: cell-based; conditions: Mycolicibacterium smegmatis; n = 1
Procedure: Supplementary Method 5: Biological Assays
Minimal inhibitory concentrations were determined against Mycobacterium vaccae (JMRC:STI:10670) and Mycobacterium smegmatis (JMRC:STH:00056). M. vaccae and M. smegmatis cultures were grown 48 h at 32 °C in a medium consisting of glycerol (1%), beef extract (0.5%), peptone from casein (0.5%) and sodium chloride (0.3%). Serial dilutions of the DMSO test item solutions (1 mg∙mL -1) were prepared at 100 µL scale in 96 well plates in Mueller Hinton broth starting at 200 µg∙mL -1 (highest) to cover a final concentration range of 100 to 0.05 µg∙mL -1. Each plate was equipped with a series of DMSO and ciprofloxacin dilutions as quality controls. 96 well plates were inoculated with 100 µL diluted culture (Mueller Hinton bullion) at a final concentration of 5∙10 5 and incubated at 37 °C for 42 h. Growth/no growth was visually inspected. […]

[2] = Microsomal stability assay; assay type: in vitro ADME, human; conditions: pH 7.4; for CLint scaled at 1 µM: liver microsomes, scaled: 52.5 mg protein/g liver, 22.0 g liver/kg, human; for half-life at 1 µM: human liver microsomes, 37 °C
Procedure: (§1) 4. Microsomal stability assay
(§2) A microsomal stability assay was performed according to an internal standard procedure. Positive control compound diclofenac and three test items were freshly prepared as sub-dilutions in phosphate buffer (100 mM, pH 7.4) at concentrations of 200 µM and 20 µM, respectively. All incubations were conducted in triplicate in glass screw neck vials (1.5 mL, flat bottom, Macherey-Nagel, Düren, Germany) on a Thermomixer C (Eppendorf, Germany) at 37 °C and 1500 rpm. The incubation mixtures contained 270 µL human liver microsomes (HLM, 1.1 mg∙mL -1, UltraPool HLM 150, Corning B.V.
(§3) Life Science, Amsterdam, the Netherlands), 270 µL NADP regeneration mix (1 mM NADP, 5 mM glucose-6-phosphate, 5 units∙mL -1 glucose-6-phosphate dehydrogenase and 5 mM MgCl 2) and 30 µL phosphate buffer to reach a total volume of 570 µL. Negative controls were performed with heat inactivated (80 °C, 30 min) HLM solution. Reactions were initiated by addition of diclofenac or the test item solution (30 µL). Aliquots of 100 µL were taken at 1, 15, 30, 60, and 90 minutes and immediately processed with 100 µL acetonitrile at 4°C to terminate the reactions, and shaken for 2 minutes at 4°C with 1600 rpm. The mixed samples were further centrifuged for 2 minutes at 4 °C with 16.1 krcf. The supernatants were withdrawn and subjected to high resolution mass spectrometry analysis without […]
(§4) Analysis of microsomal stability assay
(§5) Samples were analyzed using a Vanquish Horizon UHPLC system (Thermo Fisher Scientific, Bremen, Germany) coupled to a Thermo Scientific QExactive HF-X Orbitrap mass spectrometer (Thermo Fisher Scientific, Bremen, Germany) using a UPLC column (ACQUITY HSS T3, Waters, 1.8 µm particle size, 2.1 × 50 mm dimensions) equipped with a pre-column (ACQUITY HSS T3 VanGuard Pre-column, Waters, 1.8 µm particle size, 2.1 × 5 mm dimensions). The column temperature was maintained at 25°C, and the samples were kept at 4°C. The UHPLC system was operated at a flow rate of 0.6 mL/min and an injection volume of 5 µL. Mobile phases consisted of 0.1% (v/v) formic acid in water (Eluent A) and 0.1% (v/v) formic acid in acetonitrile (Eluent B). Chromatographic separation was obtained as follows:
(§6) 0 to 4 min: a linear from 5 to 98% of Eluent B; 4 to 6.5 min: isocratic at 98% B; 6.5 to 7 min: linear from 98 to 5% B; 7 to 9 min: isocratic at 5% B. The high-resolution mass spectra were acquired with electrospray ionization at both positive and negative modes. A scan range of m/z 120 to 1800 was chosen, and the maximum injection time was set to 200 ms. Ion source parameters were: spray voltage 3.5 kV, capillary temperature 320°C, RF level 40, sheath gas pressure 50 (N 2 > 95%), auxiliary gas 10 (N2 > 95%), auxiliary gas heater temperature 300°C. The value for the automatic gain control (AGC) target was set to 10 6, resolution was 60000, and chromatographic peak width (FWHM) was 15 s.
(§7) Calculation of the results from microsomal stability assay
(§8) Elimination rate constant (k) = (- gradient)
(§9) Half-life (t ) (min) = ௟௡
(§10) V (µL∙mg -1) = ௩௢௟௨௠௘ ௢௙ ௜௡௖௨௕௔௧௜௢௡ (µ௅) […]
(§11) Intrinsic clearance in liver microsomes (Cl ) (µL∙min∙mL -1protein) = ௏ × ௟௡ଶ […]
(§12) Intrinsic clearance (Cl ) (mL∙min -1∙kg -1) = ௟௡ × ௏ × ௠௚ ௠௜௖௥௢௦௢௠௔௟ ௣௥௢௧௘௜௡ × ௚ ௟௜௩௘௥ int ௧భ/మ ଵ଴଴଴ ௚ ௟௜௩௘௥ ௪௘௜௚௛௧ ௞௚ ௕௢ௗ௬ ௪௘௜௚௛௧
(§13) (52.5 mg protein∙ g -1 liver used for human; 22.0 g∙ kg -1 liver to body weight used for human) Hepatic extraction ratio (E ) = ୤౫ × େ୪౟౤౪
(§14) (fu: fraction of drug unbound in plasma, f u = 1 used for the calculation; Q: hepatic blood flow, 20.0 mL∙min-1∙kg -1 for human).

human liver microsomes = assay: Microsomal stability assay; assay type: in vitro ADME; conditions: for Eh (hepatic extraction ratio): fu = 1, Q = 20.0 mL∙min-1∙kg-1, human; for Clint,micro: human liver microsomes
Procedure: as §1, §2, §3, §4, §5, §6, §7, §8, §9, §10, §11, §12, §13, §14

SMILES | MIC [1] | CLint scaled at 1 µM [2] | half-life at 1 µM [2] | Eh (hepatic extraction ratio) (human liver microsomes) | Clint,micro (human liver microsomes)
COC(=O)c1cc([N+](=O)[O-])c2sc(N3CCC4(CC3)OC[C@H](C)O4)nc(=O)c2c1 [Compound 6a] | 3.7 µM (≈ 1.56 µg/mL) | 363 mL/min/kg | 4.45 min | 94.8% | 314.7 µl.min-1-mg-1 protein
CC(C)OC(=O)c1cc([N+](=O)[O-])c2sc(N3CCC4(CC3)OC[C@H](C)O4)nc(=O)c2c1 [Compound 6c] | 6.94 µM (≈ 3.12 µg/mL) | 61.1 mL/min/kg | 26.5 min | 75.3% | 52.9 µl.min-1-mg-1 protein
C[C@H]1COC2(CCN(c3nc(=O)c4cc(C(=O)O)cc([N+](=O)[O-])c4s3)CC2)O1 [Compound 8] | 15.3 µM (≈ 6.23 µg/mL) | – | – | – | –
C[C@H]1COC2(CCN(c3nc(=O)c4cc(Br)cc([N+](=O)[O-])c4s3)CC2)O1 [Compound 11] | 0.057 µM (≈ 0.0252 µg/mL) | 18.4 mL/min/kg | 87.7 min | 47.9% | 16 µl.min-1-mg-1 protein
C[C@H]1COC2(CCN(c3nc(=O)c4cccc([N+](=O)[O-])c4s3)CC2)O1 [Compound 23] | 8.59 µM (≈ 3.12 µg/mL) | 5.8 mL/min/kg | 277 min | 22.5% | 5.1 µl.min-1-mg-1 protein
C[C@H]1COC2(CCN(c3nc(=O)c4cc(I)cc([N+](=O)[O-])c4s3)CC2)O1 [Compound 10] | 0.1 µM (≈ 0.0489 µg/mL) | 19.1 mL/min/kg | 84.5 min | 48.8% | 16.1 µl.min-1-mg-1 protein
CON(C)C(=O)c1cc([N+](=O)[O-])c2sc(N3CCC4(CC3)OC[C@H](C)O4)nc(=O)c2c1 [Compound 7f] | 111 µM (≈ 50 µg/mL) | 11 mL/min/kg | 147 min | 35.5% | 9.5 µl.min-1-mg-1 protein
C[C@H]1COC2(CCN(c3nc(=O)c4cc(C#N)cc([N+](=O)[O-])c4s3)CC2)O1 [Compound 9] | 0.13 µM (≈ 0.0505 µg/mL) | 15.4 mL/min/kg | 105 min | 43.5% | 13.3 µl.min-1-mg-1 protein
C[C@H]1COC2(CCN(c3nc(=O)c4cc(C(=O)N(C)C)cc([N+](=O)[O-])c4s3)CC2)O1 [Compound 7c] | 230 µM (≈ 100 µg/mL) | 3 mL/min/kg | 533 min | 13% | 2.6 µl.min-1-mg-1 protein
